Assay results published in EPA's CvTdb concentration-time database.

Assays:
Rat [1] = test: concentration in brain after dosing; details: oral, Harlan Sprague Dawley
Rat [2] = test: concentration in kidney after dosing; details: 1200 h; dosed: Perfluorooctanoic acid; 12 mg/kg; oral; Male; Harlan Sprague Dawley
Rat [3] = test: concentration in kidney after dosing; details: oral
Rat [4] = test: concentration in plasma after dosing
Rat [5] = test: concentration in kidney after dosing; details: 24 h; dosed: Perfluorooctanoic acid; 80 mg/kg; oral; Female; Harlan Sprague Dawley
Rat [6] = test: concentration in liver after dosing; details: oral

O=C(O)C(F)(F)C(F)(F)C(F)(F)C(F)(F)C(F)(F)C(F)(F)C(F)(F)F [Perfluorooctanoic acid]
Details	concentration in brain [ng/g]	concentration in kidney [ng/g]	concentration in liver [ng/g]
Rat [1], 3 h, dosed: Perfluorooctanoic acid, 12 mg/kg, Male	1300	–	–
Rat [1], 3 h, dosed: Perfluorooctanoic acid, 80 mg/kg, Female	916	–	–
Rat [1], 6 h, dosed: Perfluorooctanoic acid, 12 mg/kg, Male	1140	–	–
Rat [1], 6 h, dosed: Perfluorooctanoic acid, 80 mg/kg, Female	4050	–	–
Rat [1], 12 h, dosed: Perfluorooctanoic acid, 12 mg/kg, Male	1390	–	–
Rat [1], 12 h, dosed: Perfluorooctanoic acid, 80 mg/kg, Female	1360	–	–
Rat [1], 24 h, dosed: Perfluorooctanoic acid, 12 mg/kg, Male	1080	–	–
Rat [1], 192 h, dosed: Perfluorooctanoic acid, 12 mg/kg, Male	584	–	–
Rat [3], 0.5 h, dosed: Fluorotelomer alcohol 8+2, 80 mg/kg, Female, Harlan Sprague Dawley	–	284	–
Rat [3], 1 h, dosed: Fluorotelomer alcohol 8+2, 24 mg/kg, Male, Harlan Sprague Dawley	–	190	–
Rat [3], 1 h, dosed: Fluorotelomer alcohol 8+2, 80 mg/kg, Female, Harlan Sprague Dawley	–	677	–
Rat [3], 3 h, dosed: Fluorotelomer alcohol 8+2, 24 mg/kg, Male, Harlan Sprague Dawley	–	270	–
Rat [3], 3 h, dosed: Fluorotelomer alcohol 8+2, 80 mg/kg, Female, Harlan Sprague Dawley	–	1260	–
Rat [3], 6 h, dosed: Fluorotelomer alcohol 8+2, 24 mg/kg, Male, Harlan Sprague Dawley	–	243	–
Rat [3], 6 h, dosed: Fluorotelomer alcohol 8+2, 80 mg/kg, Female, Harlan Sprague Dawley	–	2480	–
Rat [3], 12 h, dosed: Fluorotelomer alcohol 8+2, 24 mg/kg, Male, Harlan Sprague Dawley	–	419	–
Rat [3], 12 h, dosed: Fluorotelomer alcohol 8+2, 80 mg/kg, Female, Harlan Sprague Dawley	–	874	–
Rat [6], 0.5 h, dosed: Fluorotelomer alcohol 8+2, 24 mg/kg, Male, Harlan Sprague Dawley	–	–	325
Rat [6], 0.5 h, dosed: Fluorotelomer alcohol 8+2, 24 mg/kg, Male, Harlan Sprague Dawley - this seems too small	–	–	211
Rat [6], 0.5 h, dosed: Fluorotelomer alcohol 8+2, 80 mg/kg, Female, Harlan Sprague Dawley	–	–	434
Rat [6], 1 h, dosed: Fluorotelomer alcohol 8+2, 24 mg/kg, Male, Harlan Sprague Dawley	–	–	751
Rat [6], 1 h, dosed: Fluorotelomer alcohol 8+2, 80 mg/kg, Female, Harlan Sprague Dawley	–	–	816
Rat [6], 3 h, dosed: Fluorotelomer alcohol 8+2, 24 mg/kg, Male, Harlan Sprague Dawley	–	–	1150
Rat [6], 3 h, dosed: Fluorotelomer alcohol 8+2, 80 mg/kg, Female, Harlan Sprague Dawley	–	–	1540
Rat [6], 6 h, dosed: Fluorotelomer alcohol 8+2, 24 mg/kg, Male, Harlan Sprague Dawley	–	–	1460
Rat [6], 6 h, dosed: Fluorotelomer alcohol 8+2, 80 mg/kg, Female, Harlan Sprague Dawley	–	–	1970
Rat [6], 12 h, dosed: Fluorotelomer alcohol 8+2, 24 mg/kg, Male, Harlan Sprague Dawley	–	–	2000
Rat [6], 12 h, dosed: Fluorotelomer alcohol 8+2, 80 mg/kg, Female, Harlan Sprague Dawley	–	–	701

Details	concentration in brain [ng/g]
Rat [1], 6 h, dosed: Fluorotelomer alcohol 8+2, 80 mg/kg, Female	224

Details	concentration in kidney [ng/g]
Rat [2]	1110
Rat [5]	14000

Details	concentration in kidney [ng/g]	concentration in liver [ng/g]	concentration in plasma [ng/mL]
Rat [3], 3 h, dosed: Perfluorooctanoic acid, 12 mg/kg, Male, Harlan Sprague Dawley	42500	–	–
Rat [3], 3 h, dosed: Perfluorooctanoic acid, 80 mg/kg, Female, Harlan Sprague Dawley	70300	–	–
Rat [3], 6 h, dosed: Perfluorooctanoic acid, 12 mg/kg, Male, Harlan Sprague Dawley	25600	–	–
Rat [3], 6 h, dosed: Perfluorooctanoic acid, 80 mg/kg, Female, Harlan Sprague Dawley	263000	–	–
Rat [3], 12 h, dosed: Perfluorooctanoic acid, 12 mg/kg, Male, Harlan Sprague Dawley	36200	–	–
Rat [3], 12 h, dosed: Perfluorooctanoic acid, 80 mg/kg, Female, Harlan Sprague Dawley	61600	–	–
Rat [3], 24 h, dosed: Perfluorooctanoic acid, 12 mg/kg, Male, Harlan Sprague Dawley	30400	–	–
Rat [3], 24 h, dosed: Perfluorooctanoic acid, 80 mg/kg, Female, Harlan Sprague Dawley	11600	–	–
Rat [3], 48 h, dosed: Perfluorooctanoic acid, 80 mg/kg, Female, Harlan Sprague Dawley	541	–	–
Rat [3], 192 h, dosed: Perfluorooctanoic acid, 12 mg/kg, Male, Harlan Sprague Dawley	20300	–	–
Rat [3], 528 h, dosed: Perfluorooctanoic acid, 12 mg/kg, Male, Harlan Sprague Dawley	3900	–	–
Rat [3], 528 h, dosed: Perfluorooctanoic acid, 12 mg/kg, Male, Harlan Sprague Dawley - this seems too small	6140	–	–
Rat [3], 1200 h, dosed: Perfluorooctanoic acid, 12 mg/kg, Male, Harlan Sprague Dawley	574	–	–
Rat [4], 0.25 h, dosed: 678-39-7, 12 mg/kg, iv, Male, F344	–	–	184
Rat [4], 0.25 h, dosed: 678-39-7, 40 mg/kg, iv, Male, F344	–	–	257000
Rat [4], 0.25 h, dosed: Fluorotelomer alcohol 8+2, 12 mg/kg, oral, Male, Harlan Sprague Dawley	–	–	14.2
Rat [4], 0.5 h, dosed: 678-39-7, 12 mg/kg, iv, Male, F344	–	–	282
Rat [4], 0.5 h, dosed: 678-39-7, 40 mg/kg, iv, Female, Harlan Sprague-Dawley	–	–	1570
Rat [4], 0.5 h, dosed: 678-39-7, 40 mg/kg, iv, Male, F344	–	–	1510
Rat [4], 0.5 h, dosed: Fluorotelomer alcohol 8+2, 12 mg/kg, oral, Male, Harlan Sprague Dawley	–	–	68.8
Rat [4], 0.75 h, dosed: 678-39-7, 12 mg/kg, iv, Male, F344	–	–	203
Rat [4], 0.75 h, dosed: 678-39-7, 40 mg/kg, iv, Female, Harlan Sprague-Dawley	–	–	1860
Rat [4], 0.75 h, dosed: Fluorotelomer alcohol 8+2, 12 mg/kg, oral, Male, Harlan Sprague Dawley	–	–	159
Rat [4], 1 h, dosed: 678-39-7, 12 mg/kg, iv, Male, F344	–	–	396
Rat [4], 1 h, dosed: 678-39-7, 40 mg/kg, iv, Female, Harlan Sprague-Dawley	–	–	2280
Rat [4], 3 h, dosed: 678-39-7, 12 mg/kg, iv, Male, F344	–	–	478
Rat [4], 3 h, dosed: 678-39-7, 40 mg/kg, iv, Male, F344	–	–	2030
Rat [4], 3 h, dosed: Fluorotelomer alcohol 8+2, 12 mg/kg, oral, Male, Harlan Sprague Dawley	–	–	423
Rat [4], 5 min, dosed: 678-39-7, 12 mg/kg, iv, Male, F344	–	–	29.7
Rat [4], 5 min, dosed: 678-39-7, 40 mg/kg, iv, Male, F344	–	–	189
Rat [4], 6 h, dosed: 678-39-7, 12 mg/kg, iv, Male, F344	–	–	630
Rat [4], 6 h, dosed: Fluorotelomer alcohol 8+2, 12 mg/kg, oral, Male, Harlan Sprague Dawley	–	–	634
Rat [4], 9 h, dosed: 678-39-7, 12 mg/kg, iv, Male, F344	–	–	607
Rat [4], 9 h, dosed: 678-39-7, 40 mg/kg, iv, Female, Harlan Sprague-Dawley	–	–	622
Rat [4], 9 h, dosed: 678-39-7, 40 mg/kg, iv, Male, F344	–	–	702
Rat [4], 9 h, dosed: Fluorotelomer alcohol 8+2, 12 mg/kg, oral, Male, Harlan Sprague Dawley	–	–	578
Rat [4], 12 h, dosed: 678-39-7, 12 mg/kg, iv, Male, F344	–	–	364
Rat [4], 12 h, dosed: 678-39-7, 40 mg/kg, iv, Female, Harlan Sprague-Dawley	–	–	353
Rat [4], 12 h, dosed: 678-39-7, 40 mg/kg, iv, Male, F344	–	–	12300
Rat [4], 12 h, dosed: Fluorotelomer alcohol 8+2, 12 mg/kg, oral, Male, Harlan Sprague Dawley	–	–	507
Rat [4], 24 h, dosed: 678-39-7, 12 mg/kg, iv, Male, F344	–	–	460
Rat [4], 24 h, dosed: 678-39-7, 40 mg/kg, iv, Female, Harlan Sprague-Dawley	–	–	52.2
Rat [4], 48 h, dosed: Fluorotelomer alcohol 8+2, 12 mg/kg, oral, Male, Harlan Sprague Dawley	–	–	536
Rat [4], 192 h, dosed: 678-39-7, 12 mg/kg, iv, Male, F344	–	–	260
Rat [4], 192 h, dosed: Fluorotelomer alcohol 8+2, 12 mg/kg, oral, Male, Harlan Sprague Dawley	–	–	356
Rat [6], 3 h, dosed: Perfluorooctanoic acid, 12 mg/kg, Male, Harlan Sprague Dawley	–	49900	–
Rat [6], 3 h, dosed: Perfluorooctanoic acid, 80 mg/kg, Female, Harlan Sprague Dawley	–	35300	–
Rat [6], 6 h, dosed: Perfluorooctanoic acid, 12 mg/kg, Male, Harlan Sprague Dawley	–	51000	–
Rat [6], 6 h, dosed: Perfluorooctanoic acid, 80 mg/kg, Female, Harlan Sprague Dawley	–	197000	–
Rat [6], 12 h, dosed: Perfluorooctanoic acid, 12 mg/kg, Male, Harlan Sprague Dawley	–	65600	–
Rat [6], 12 h, dosed: Perfluorooctanoic acid, 80 mg/kg, Female, Harlan Sprague Dawley	–	52000	–
Rat [6], 24 h, dosed: Perfluorooctanoic acid, 12 mg/kg, Male, Harlan Sprague Dawley	–	64800	–
Rat [6], 24 h, dosed: Perfluorooctanoic acid, 80 mg/kg, Female, Harlan Sprague Dawley	–	7890	–
Rat [6], 48 h, dosed: Perfluorooctanoic acid, 80 mg/kg, Female, Harlan Sprague Dawley	–	573	–
Rat [6], 192 h, dosed: Perfluorooctanoic acid, 12 mg/kg, Male, Harlan Sprague Dawley	–	48600	–
Rat [6], 528 h, dosed: Perfluorooctanoic acid, 12 mg/kg, Male, Harlan Sprague Dawley	–	14900	–
Rat [6], 528 h, dosed: Perfluorooctanoic acid, 12 mg/kg, Male, Harlan Sprague Dawley - this seems too small	–	22600	–
Rat [6], 1200 h, dosed: Perfluorooctanoic acid, 12 mg/kg, Male, Harlan Sprague Dawley	–	2160	–
